Data published in ChEMBL document CHEMBL1130619, “Quaternary substituted PDE4 inhibitors I: the synthesis and in vitro evaluation of a novel series of oxindoles” (Bioorg Med Chem Lett, 1998).

Experiments:
[1] = target: T1, Phosphodiesterase 4 (Homo sapiens, UniProt P27815+Q08499+Q07343+Q08493); experiment: Displacement of [3H]rolipram binding to guinea pig brain membrane; assay type: tissue-based, Cavia porcellus; conditions: target entry is the homologue from another species
[2] = target: T1, Phosphodiesterase 4; experiment: Inhibition of guinea pig macrophage Phosphodiesterase 4; assay type: protein assay, Cavia porcellus; conditions: target entry is the homologue from another species

| Ki [1] [nM] | IC50 [2] [nM] | SMILES |
| --- | --- | --- |
| > 3700 | 2000 | COc1ccc(C2(Cc3ccncc3)C(=O)N(Cc3ccccc3)c3ccccc32)cc1OC1CCCC1 (centres undefined) |
| 200 | 600 | COc1ccc(C2(Cc3ccncc3)C(=O)Nc3ccccc32)cc1OC1CCCC1 (centres undefined) |
| > 3700 | 1000 | COc1ccc(C2(Cc3ccncc3)C(=O)N(Cc3ccncc3)c3ccccc32)cc1OC1CCCC1 (centres undefined) |
| > 3700 | 2400 | COc1ccc(C2(Cc3ccncc3)C(=O)N(S(=O)(=O)c3ccc(C)cc3)c3ccccc32)cc1OC1CCCC1 (centres undefined) |
| 2600 | 400 | COc1ccc(C2(Cc3cccnc3)C(=O)Nc3ccccc32)cc1OC1CCCC1 (centres undefined) |
| 2800 | 700 | COc1ccc(C2(Cc3ccncc3)C(=O)N(C(=O)OC(C)(C)C)c3ccccc32)cc1OC1CCCC1 (centres undefined) |
| > 3700 | 1200 | COc1ccc(C2(Cc3cc[n+]([O-])cc3)C(=O)Nc3ccccc32)cc1OC1CCCC1 (centres undefined) |
| > 3700 | 700 | COc1ccc(C2(Cc3ccccn3)C(=O)Nc3ccccc32)cc1OC1CCCC1 (centres undefined) |
| > 3700 | 6000 | COc1ccc(C2C(=O)Nc3ccccc32)cc1OC1CCCC1 (centres undefined) |
| 2400 | 1700 | COc1ccc(C2(Cc3ccncc3)C(=O)N(C(=O)N(C)C)c3ccccc32)cc1OC1CCCC1 (centres undefined) |
| > 3700 | 1000 | COc1ccc(C2(Cc3ccccc3)C(=O)Nc3ccccc32)cc1OC1CCCC1 (centres undefined) |
| 60 | 4.5 | COc1ccc([C@H](Cc2ccncc2)c2ccccc2)cc1OC1CCCC1 [CDP840] |
